The values below come from US20110079773A1, “Selectively Functionalized Rylene Imides and Diimides” (priority 2009, published 2011).

The structures appear in SMILES notation. Converted amounts (≈) assume the structure as drawn. “And” between values parts separate entries of the source, which are not always exact repeats. Identical values can stand only once. Marks after values point to notes of the source that are not given here.

Common to all, as to assay type: physicochemical
Series [1] can be described thus: Steady-state electronic absorption and fluorescence spectroscopy. Conditions: for λmax: UV-vis absorption in toluene; for E(S1): determined from the average energy of the absorption and emission maxima; for ε: extinction coefficient at λmax; for ε / λem: toluene; for λem: fluorescence emission maximum; for φF: fluorescence quantum yield. On the procedure: Steady-state electronic absorption spectra were recorded on a Shimadzu 1601 UV/Vis spectrometer with a 2 mm quartz cuvette. Fluorescence measurements were performed using a PTI Quanta-Master 1 single photon counting spectrofluorimeter in a right angle configuration with a 1 cm quartz cuvette.
The intensity of the S0→>S1 transition increases with the size of the aromatic core, while the energy decreases. The fluorescence spectrum of each chromophore is shown in FIG. 4b and summarized in Table 4 along with that of compounds 1, 3, 5, 7, and 9. A similar trend with the emission maxima moving to longer wavelengths as the size of the aromatic core increases was observed. The electronic absorption and fluorescence properties of all the alkylated chromophores are very similar to those of the parent compounds. No observable trend is apparent for the slight shifts in λmax; however, with the exception of 2, all alkylated compounds have slightly lower extinction coefficients than their parent compounds. The fluorescence emission maxima of the alkylated compounds (Table 4) are similar to those of the parent compounds as reported in the literature. See Hydlovic et al., Phtochem. Photobiol. A., 112: 197-203 (1998); Licchelli et al., Chem. Eur. J., 8: 5161-5169 (2002); Weil et al., Chem. Eur. J., 8: 4742-4750 (2002); and Sadrai et al., J. Phys. Chem., 96: 7988-7996 (1992).

Series [2] is described as follows: Electrochemistry (redox potentials). The following applies: for E^−1/2: first reduction potential. On the procedure: Electrochemical measurements were performed using a CH Instruments Model 622 electrochemical workstation. Measurements for compounds 4, 6, 8, and 10 were performed in dichloromethane containing 0.1 M tetrabutylammonium hexafluorophosphate (TBAPF6) electrolyte. Measurements for 2 were performed in benzonitrile with the same electrolyte. A 1.0 mm diameter platinum disk electrode, platinum wire electrode, and […] reference electrode were employed. The ferrocene/ferrocenium redox couple (Fc/Fc^+, 0.46 V vs. SCE) (see Connelly et al., Chem. Rev., 96: 877-910 (1996)) was used as an internal standard. TBAPF6 was recrystallized twice from ethyl acetate prior to use.
Alkylation (e.g., substitution of the phenethyl groups) ortho to the imide nitrogen atoms appears to render the present compounds somewhat more difficult to reduce, but easier to oxidize (Table 3). The reduction potentials of the disubstituted compounds (2, 4, and 6) are approximately 130 mV more negative than those of their parent compounds. Correspondingly, the oxidation potential of the disubstituted 6 is 40 mV less positive than that of […]. Tetrasubstituted 8 and 10 have reduction potentials that are more negative by ˜200 mV than their unsubstituted analogs. These shifts in redox potentials reasonably arise from the electron-donating nature of the alkylating (e.g., phenethyl) groups. The oxidation and reduction potentials of all alkylated molecules shift in the same direction by nearly the same amount, such that the corresponding HOMO-LUMO energy gap remains the same, as is reflected in their electronic absorption and emission spectra described below.

The nature of series [3]: Femtosecond transient absorption (excited-state decay). The following applies: transient absorption decay time constant, dry toluene. An excerpt:
Femtosecond transient absorption measurements were made using a Ti:sapphire laser system as detailed in previously reported work. See Kelley et al., J. Am. Chem. Soc., 129: 3173-3181 (2007). The wavelengths used to excite the samples were 390 nm (1-4), 416 nm (5-8), and 650 nm (9 and 10). The instrument response function for the pump-probe experiments is 160 fs. The transient spectra were obtained using 10 s of averaging at a given delay time. Glass cuvettes with a 2 mm pathlength were used and the samples were dissolved in dry toluene and irradiated with 1.0 μJ pulses at the excitation wavelength. Analysis of the kinetic data was performed at multiple wavelengths using a Levenberg-Marquardt nonlinear least-squares fit to a general sum-of-exponentials function with an added Gaussian to account for the finite instrument response.
The transient absorption spectra of naphthalene monoimide 2, specifically, the S1→>Sn absorption is characterized by a single broad band at 525 nm, which decays monoexponentially with a time constant τD=34 ps. This is similar to the time constant of other NMI compounds and is attributed to rapid intersystem crossing leading to the triplet state of 2. […] The residual 530 nm absorption band decays further with a 175 ps time constant. […]

Another series in a line: Solubility in toluene. On the procedure:
As used herein, a compound can be considered soluble in a solvent when at least 0.1 mg of the compound can be dissolved in 1 mL of the solvent. Examples of common organic solvents include petroleum ethers; acetonitrile; aromatic hydrocarbons such as benzene, toluene, xylene, and mesitylene; ketones such as acetone, and methyl ethyl ketone; ethers such as tetrahydrofuran, dioxane, bis(2-methoxyethyl)ether, diethyl ether, di-isopropyl ether, and t-butyl methyl ether; alcohols such as methanol, ethanol, butanol, and isopropyl alcohol; aliphatic hydrocarbons such as hexanes; esters such as methyl acetate, ethyl acetate, methyl formate, ethyl formate, isopropyl acetate, and butyl acetate; amides such as dimethylformamide and dimethylacetamide; sulfoxides such as dimethylsulfoxide; halogenated aliphatic and aromatic hydrocarbons such as dichloromethane, chloroform, ethylene chloride, chlorobenzene, dichlorobenzene, and trichlorobenzene; and cyclic solvents such as cyclopentanone, cyclohexanone, and 2-methypyrrolidone. In various embodiments, the present compounds can have good solubility in solvents that are aromatic hydrocarbons such as benzene, toluene, xylene, and mesitylene.
Table 2 below compares the solubilities of several compounds according to the present teachings with their unsubstituted counterparts in toluene.

[4] abbreviates: shift versus unsubstituted parent.

`CCCCCCCCN1C(=O)c2c(CCc3ccccc3)ccc3ccc(CCc4ccccc4)c(c23)C1=O` [Compound 2, N-(n-octyl)-2,7-bis(phenylethyl)naphthalene-1,8-dicarboximide]: in series [1], the λmax is 353 nm, the “E(S1)” value is recorded as 3.34 eV, the ε was 15000 M⁻¹ cm⁻¹ and the λem is recorded as 394^ nm. The φF in series [1] turned out to be 0.08. Also, the “E^−1/2” value in series [2] (obtained in benzonitrile with 0.1 M TBAPF6) is reported as −1.53^b. Besides, the “Reduction potential more negative than that of parent compound” value in series [2] (setting [4]) is listed as “approximately 130 mV”. Also, the τD in series [3] was 34 ps and 34 ± 1 ps.
Broadly, the solubility is how much of the substance goes into solution per volume. With `CCCCC(CC)CN1C(=O)c2c(CCc3ccccc3)cc3c4cccc5cccc(c6cc(CCc7ccccc7)c(c2c36)C1=O)c54` (stereo not drawn) [Compound 6, N-(2′-ethylhexyl)-2,5-bis(phenethyl)perylene-3,4-dicarboximide], in series [1], the λmax worked out at 501 nm, the “E(S1)” value was 2.43 eV, the ε was found to be 27000 M⁻¹ cm⁻¹ and the λem was 521^ nm. Besides, the φF in series [1] stood at 0.98. The “Solubility relative to unsubstituted counterpart” value in “Solubility in toluene” is given as “three times more soluble”. Also, in “Solubility in toluene” (organic solvent or mixture), the solubility was determined as 6000 µg/mL (≈ 9.35 mM). In series [2] (dichloromethane, 0.1 M TBAPF6, Fc/Fc+ (0.46 V vs. SCE) internal standard), the “E^−1/2” value was −1.13^. Further, in series [2] (oxidation potential, dichloromethane, 0.1 M TBAPF6, Fc/Fc+ (0.46 V vs. SCE) internal standard), the E^+1/2 was 1.37 V. Further, the “E^2−1/2” value in series [2] (second reduction potential, dichloromethane, 0.1 M TBAPF6) is on record as −1.43^. In addition, in series [2] (setting [4]), the “Oxidation potential less positive than that of parent” value is on record as 40 mV and the “Reduction potential more negative than that of parent compound” value is “approximately 130 mV”. In series [3], this compound showed a τD of 4700 ± 88 ps.
